The text below walks through data of patent US20220265759A1, “COMPOSITION AND METHOD FOR PROMOTING WOUND HEALING” (THE BOARD OF TRUSTEES OF THE UNIVERSITY OF ILLIOIS, priority 2019, published 2022).

For one data set, the target named is T1, CCR10-eNOS interaction (Mus musculus, UniProt Q9JL21).
T1 construct: cells or mouse wounds were collected after treatment, and lysed in 2% ODG in Tris buffer; tissue Jackson Laboratory; host or cells: dorsal skin wounds of WT C57BL/6 or db/db mice
T1 sequence (Q9JL21 1-362): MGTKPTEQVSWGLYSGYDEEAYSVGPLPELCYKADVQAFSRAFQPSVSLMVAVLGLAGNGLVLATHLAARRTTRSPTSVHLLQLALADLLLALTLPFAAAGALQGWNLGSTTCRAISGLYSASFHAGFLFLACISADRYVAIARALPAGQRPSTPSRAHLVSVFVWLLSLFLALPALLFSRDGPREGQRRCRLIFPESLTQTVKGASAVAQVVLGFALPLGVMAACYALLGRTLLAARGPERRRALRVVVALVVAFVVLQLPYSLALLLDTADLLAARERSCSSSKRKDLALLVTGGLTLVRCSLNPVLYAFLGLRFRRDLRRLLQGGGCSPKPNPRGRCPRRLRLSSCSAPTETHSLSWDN
Kind of data set: Co-IP of CCR10-eNOS interaction in WT mouse wounds. The class given is in vivo, WT C57BL/6 mice. The note with it: day 7, 50 μM. An excerpt: Co-IP Experiments, cells or mouse wounds were collected after treatment, and lysed in 2% ODG in Tris buffer. The homogenates were further prepared for Co-IP experiments as described in the art (Chen, et al. (2018) Mol. Biol. Cell 29(10):1190-1202; Chen, et al. (2020) FASEB J. 34(4):5838-5850; Chen, et al. (2015) Ann. Rheum. Dis. 74:1898-1906).

The subject of a further data set is HEK/eNOS cells. Briefly: NO production in HEK/eNOS cells. Conditions: HEK/eNOS cells with/without co-expression of CCR10-GFP, pretreatment, compared with control peptide. The class given is cell-based, human.
Data set [1] has as its system full thickness excisional wounds on mouse dorsal skin. Briefly: Excisional dermal wound healing in WT C57BL/6 mice. The class given is in vivo. The note with it: for reduction of wound size: compared to control peptide. Here is the method:
Mouse Healing Models. All animal procedures were performed in accordance with the Guide for the Care and Use of Laboratory Animals (National Institutes of Health). WT C57BL/6, eNOS^−/− and db/db mice were purchased from Jackson Laboratory (Bar Harbor, Me.). CCR10^−/− mice have been described in the art, see, e.g., Jin, et al. (2011) J. Immunol. 185(10):5723-31. Four 5-mm or two 8-mm full thickness excisional wounds were made on the dorsal skin of mice (male, aged at 9 weeks) using a standard skin biopsy punch under ketamine (100 mg/kg) and xylazine (5 mg/kg) anesthesia. Scrambled myristoylated (Myr−) control or Myr-CBD7 peptides were applied topically to wounds in F-127 gel sold under the tradename PLURONIC® after wounding (Mirza, et al. (2009) Am. J. Pathol. 175:2454-2462). Wound size was determined as previously described (Chen, et al. (2020) FASEB J. 34(4):5838-5850; Zhao, et al. (2016) PLoS ONE. 11:e0146451) and wounds were collected at indicated times for indicated measurements.
Hematoxylin and Eosin (H&E) Staining. H&E staining was performed as described previously (Chignalia, et al. (2015) Am. J. Pathol. 185:1251-1263). Slides with 5 μm tissue sections were baked at 60° C. for 30 minutes and stained with an Autostainer XL (Leica Microsystems, Wetzlar, Germany) using preset protocol. Briefly, slides were deparaffinized in three changes of xylene, rehydrated in 100% and 95% ethanol, […] followed by a brief immersion in High-Def and Bluing to obtain crisp nuclear details. Slides were then incubated in eosin for 2 minutes, dehydrated and mounted with Micromount media (Leica Biosystems). Whole slide images were obtained using Aperio AT2 brightfield scanner (Leica Microsystems, Wetzlar, Germany).
CCL28 (also called mucosa-associated epithelial chemokine) is a CC chemokine that signals via CCR10 as well as CCR3 (Pan, et al. (2000) J. Immunol. 165:2943). CCR10 has been reported to have two functional ligands, CCL27 and CCL28 that are involved in the epithelial immunity (Xiang, et al. (2012) Protein Cell 3:571-580). It was observed that CCL28 and CCR10 levels were highly expressed compared to CCL27 and CCR3 in skin of WT C57BL/6 mice. […] Therefore, it was subsequently investigated whether blockade of CCR10-eNOS interaction with Myr-CBD7 peptide has an effect on wound healing in WT C57BL/6 mice. Four 5 mm diameter full thickness excisional wounds were made on the mouse dorsal skin and 30 μl Myr-CBD7 peptide (50 μM) was topically administrated onto the wounds immediately after creating the punch wound.

The next data set has as its system eNOS. Briefly: eNOS expression in db/db mouse wounds (western blot). The class given is in vivo, db/db mice. Conditions: day 12. Here is the method: Immunoblot and Co-Immunoprecipitation (Co-IP). After serum starvation, inhibitors were added 45 minutes prior to stimulation for indicated times at 37° C., and cells were then collected and lysed for western blot analysis. After probing for p-eNOS (Ser1177), p-p85 (Tyr458), p-Src (Tyr 416), and p-ERK (T202/Y204), the same blots were stripped and re-probed for total proteins mentioned above. For detection of CCL28-induced protein levels of β-catenin and Bcl-2, near-confluent endothelial cells were incubated with 500 ng/ml CCL28 for 24 hours in EGM-2 medium containing 1% FBS.
Two 8 mm full thickness excisional wounds were made on the dorsal skin of diabetic db/db mice and then 50 μl of 50 μM Myr-CBD7 peptide was topically applied. […] Reduced CCR10-eNOS interaction was also observed in the mouse wounds following treatment with Myr-CBD7 peptide as determined by Co-IP (FIG. 6).
For orientation: In western blotting, separated proteins are transferred to a membrane and probed.

For data set [2], the system named is CD31, CCR10, CCL28, IL-6, IL-4, HGF mRNA. Kind of data set: Real-time RT-PCR of mRNA levels in WT mouse dermal wounds. The class given is in vivo, WT C57BL/6 mice. Here is the method:
Real-Time RT-PCR. Total cellular RNA from mouse skin wounds was extracted using nucleic acid extraction reagent sold under the tradename TRIZOL®. mRNA expression of different genes was examined by real-time RT-PCR that employed a SYBR Green PCR mix. Relative gene expression was determined by the ΔΔCt method based on GAPDH levels as described previously (Chen, et al. (2013) J. Immunol. 190:5256-5266).
(In general: Quantitative PCR measures a nucleic acid by following its amplification.)

Peptide text beside a SMILES is read from it. * marks the point of attachment. Myristoyl = CCCCCCCCCCCCCC(=O)*

For the compound `CCCCCCCCCCCCCC(=O)N[C@@H](CCCCN)C(=O)N[C@H](C(=O)N[C@@H](CO)C(=O)N[C@@H](C)C(=O)N[C@@H](CO)C(=O)N[C@@H](CC(C)C)C(=O)N[C@@H](CCSC)C(=O)O)[C@@H](C)CC` [Myr-CBD7, myr-KISASLM] (Myristoyl-KISASLM-OH), the “CCR10-eNOS interaction in wounds (Co-IP)” value at CCR10-eNOS interaction was “reduced”. Moreover, the NO production entry in the data set with HEK/eNOS cells is listed as “elevated significantly”. Moreover, the “reduction of wound size” value in data set [1] (day 5, 30 μl of 50 μM topical) turned out to be 20%. Also, in data set [1] (day 5 and 7, 30 μl (50 μM) per wound, vs Myr-control construct, P<0.05), the “wound size (FIG. 1)” value was “reduced wound size significantly”. Also, the “reduction of wound size” value in data set [1] (day 7, 30 μl of 50 μM topical) is listed as 35%. Further, in data set [1] (day 7, vs control construct), the “re-epithelization of the skin wound (H&E stained sections)” value is recorded as “associated with re-epithelization of the skin wound”. Besides, the wound healing time result in data set [1] (topical administration on dermal wounds) was “decreased”. Further, the “eNOS expression in wounds” value with eNOS was “significantly elevated”. Moreover, in data set [2] (wounds day 7), the “CCL28 mRNA level” value is “reduction”, the “CCR10 mRNA level” value is “did not change”, the “CD31 mRNA level” value is listed as “elevated” and the “IL-4 mRNA level” value is “enhancing”. For the same compound, the “IL-6 mRNA level” value in data set [2] (wounds day 7) is “reduction”. Further, the “increase of hepatocyte growth factor (HGF) mRNA level” value in data set [2] (wounds day 7, non-significant) is reported as 35%.
